US20260240166A1, “ANTIMICROBIAL AND ANTIVIRAL, BIOLOGICALLY ACTIVE POLYMER COMPOSITES EFFECTIVE AGAINST SARS-COV-2 AND OTHER VIRAL, BACTERIAL AND FUNGAL TARGETS, AND RELATED METHODS, MATERIALS, COATINGS AND DEVICES” (priority 2019, published 2026)

Test: Thermogravimetric analysis (thermal stability)
Format: physicochemical
Conditions: thermogravimetric profile (FIG. 6)

benzalkonium chloride
temperature to which stable / at which decomposition begins (TGA): about 200 °C
